{"source": "paper PMC5218480", "about": "(PLoS ONE, 2017)", "system": "MV-4-11 cells", "assay": "Gene expression microarray analysis (Affymetrix PrimeView) and GSEA", "assay_type": "cell-based, human", "design": "RFU PODN (11730768_x_at) / Fold change /veh PODN (11730768_x_at) / RFU LINC00158 (11744669_a_at) / Fold change /veh LINC00158 (11744669_a_at) / RFU DUSP10 (11751237_a_at) / Fold change /veh DUSP10 (11751237_a_at) / RFU ID3 (11757404_x_at) / Fold change /veh ID3 (11757404_x_at) / RFU PLEKHG5 (11737974_s_at) / Fold change /veh PLEKHG5 (11737974_s_at) / RFU LRRC4B (11730491_at) / Fold change /veh LRRC4B (11730491_at) / RFU GIMAP4 (11747438_a_at) / Fold change /veh GIMAP4 (11747438_a_at) / RFU KRT8 (11758183_x_at) / Fold change /veh KRT8 (11758183_x_at) / RFU CNN1 (11734310_a_at) / Fold change /veh CNN1 (11734310_a_at) / RFU VPS37D (11726825_at) / Fold change /veh VPS37D (11726825_at) / RFU C10orf10 (11716522_x_at) / Fold change /veh C10orf10 (11716522_x_at) / RFU KIR2DL2 /// KIR2DL4 /// KIR2DL5A /// KIR2DL5B /// KIR2DS1 /// KIR2DS2 /// KIR2DS3 /// KIR2DS4 /// KIR3DL3 /// KIR3DL3 /// KIR3DS1 (11738374_at) / Fold change /veh KIR2DL2 /// KIR2DL4 /// KIR2DL5A /// KIR2DL5B /// KIR2DS1 /// KIR2DS2 /// KIR2DS3 /// KIR2DS4 /// KIR3DL3 /// KIR3DL3 /// KIR3DS1 (11738374_at) / RFU C1QL1 (11718748_at) / Fold change /veh C1QL1 (11718748_at) / RFU TMPRSS4 (11747572_a_at) / Fold change /veh TMPRSS4 (11747572_a_at) / RFU HAMP (11756126_x_at) / Fold change /veh HAMP (11756126_x_at) / RFU RNFT2 (11725882_a_at) / Fold change /veh RNFT2 (11725882_a_at) / RFU NR4A2 (11747474_a_at) / Fold change /veh NR4A2 (11747474_a_at) / RFU ABCC12 (11746883_a_at) / Fold change /veh ABCC12 (11746883_a_at) / RFU TMEM136 (11760407_x_at) / Fold change /veh TMEM136 (11760407_x_at) / RFU CLDN22 /// WWC2 (11732394_at) / Fold change /veh CLDN22 /// WWC2 (11732394_at) / RFU HLA-DPB1 (11760878_x_at) / Fold change /veh HLA-DPB1 (11760878_x_at) / RFU SPINT1 (11716480_a_at) / Fold change /veh SPINT1 (11716480_a_at) / RFU GAP43 (11754022_s_at) / Fold change /veh GAP43 (11754022_s_at) / RFU A4GNT (11735810_at) / Fold change /veh A4GNT (11735810_at) / RFU PRB3 (11715151_x_at) / Fold change /veh PRB3 (11715151_x_at) / RFU TUBB4B (11761932_at) / Fold change /veh TUBB4B (11761932_at) / RFU CAPN14 (11732068_a_at) / Fold change /veh CAPN14 (11732068_a_at) / RFU TMCC2 (11721928_a_at) / Fold change /veh TMCC2 (11721928_a_at) / RFU IRGQ (11745062_a_at) / Fold change /veh IRGQ (11745062_a_at) / RFU FAM174B (11720279_a_at) / Fold change /veh FAM174B (11720279_a_at) / RFU TMPRSS4 (11748680_a_at) / Fold change /veh TMPRSS4 (11748680_a_at) / RFU FAM212B (11763350_a_at) / Fold change /veh FAM212B (11763350_a_at) / RFU PLEKHG5 (11743358_a_at) / Fold change /veh PLEKHG5 (11743358_a_at) / RFU ZSCAN30 (11745921_a_at) / Fold change /veh ZSCAN30 (11745921_a_at) / RFU CMKLR1 (11741424_a_at) / Fold change /veh CMKLR1 (11741424_a_at) / RFU LOC101060620 /// MAPK8IP1 (11723275_at) / Fold change /veh LOC101060620 /// MAPK8IP1 (11723275_at) / RFU SPTSSB (11747773_x_at) / Fold change /veh SPTSSB (11747773_x_at) / RFU PRSS12 (11739890_at) / Fold change /veh PRSS12 (11739890_at) / RFU BIN1 (11741810_x_at) / Fold change /veh BIN1 (11741810_x_at) / RFU WNT11 (11732464_a_at) / Fold change /veh WNT11 (11732464_a_at) / RFU C10orf10 (11716521_a_at) / Fold change /veh C10orf10 (11716521_a_at) / RFU C5orf56 (11738089_at) / Fold change /veh C5orf56 (11738089_at) / RFU CYB561 (11721691_x_at) / Fold change /veh CYB561 (11721691_x_at) / RFU ANKRD19P (11752326_a_at) / Fold change /veh ANKRD19P (11752326_a_at) / RFU OR2T12 /// OR2T33 /// OR2T8 (11738714_s_at) / Fold change /veh OR2T12 /// OR2T33 /// OR2T8 (11738714_s_at) / RFU VCAN (11748164_a_at) / Fold change /veh VCAN (11748164_a_at) / RFU JSRP1 (11732532_at) / Fold change /veh JSRP1 (11732532_at) / RFU KRTAP10-11 (11738290_x_at) / Fold change /veh KRTAP10-11 (11738290_x_at) / RFU MYO3A (11730013_a_at) / Fold change /veh MYO3A (11730013_a_at) / RFU EBF3 (11725865_a_at) / Fold change /veh EBF3 (11725865_a_at) / RFU CAMK2N1 (11719241_x_at) / Fold change /veh CAMK2N1 (11719241_x_at) / RFU C5orf56 (11738088_a_at) / Fold change /veh C5orf56 (11738088_a_at) / RFU OLFML3 (11715873_a_at) / Fold change /veh OLFML3 (11715873_a_at) / RFU LOC100653217 /// NTM (11731650_a_at) / Fold change /veh LOC100653217 /// NTM (11731650_a_at) / RFU MAPK11 (11762145_a_at) / Fold change /veh MAPK11 (11762145_a_at) / RFU FIZ1 (11724087_x_at) / Fold change /veh FIZ1 (11724087_x_at) / RFU OASL (11726364_x_at) / Fold change /veh OASL (11726364_x_at) / RFU SOX15 (11748057_x_at) / Fold change /veh SOX15 (11748057_x_at) / RFU CD79A (11719716_a_at) / Fold change /veh CD79A (11719716_a_at) / RFU HIST1H1D (11736915_at) / Fold change /veh HIST1H1D (11736915_at) / RFU CASKIN2 (11723855_a_at) / Fold change /veh CASKIN2 (11723855_a_at) / RFU LOC730098 (11760151_x_at) / Fold change /veh LOC730098 (11760151_x_at) / RFU OR4N2 (11742367_at) / Fold change /veh OR4N2 (11742367_at) / RFU PRRT2 (11749266_a_at) / Fold change /veh PRRT2 (11749266_a_at) / RFU SNX32 (11753110_a_at) / Fold change /veh SNX32 (11753110_a_at) / RFU CDHR5 (11726645_a_at) / Fold change /veh CDHR5 (11726645_a_at) / RFU RCAN1 (11760418_a_at) / Fold change /veh RCAN1 (11760418_a_at) / RFU FAM167A (11723789_a_at) / Fold change /veh FAM167A (11723789_a_at) / RFU FAM26E (11764081_at) / Fold change /veh FAM26E (11764081_at) / RFU ISYNA1 (11749810_s_at) / Fold change /veh ISYNA1 (11749810_s_at) / RFU ACY1 (11761880_at) / Fold change /veh ACY1 (11761880_at) / RFU 11764098_at / Fold change /veh 11764098_at / RFU SAMD14 (11745864_x_at) / Fold change /veh SAMD14 (11745864_x_at) / RFU NPB (11741838_a_at) / Fold change /veh NPB (11741838_a_at) / RFU TMPRSS6 (11731388_a_at) / Fold change /veh TMPRSS6 (11731388_a_at) / RFU KRTAP10-2 (11738614_at) / Fold change /veh KRTAP10-2 (11738614_at) / RFU ARHGAP8 /// PRR5-ARHGAP8 (11727945_x_at) / Fold change /veh ARHGAP8 /// PRR5-ARHGAP8 (11727945_x_at) / RFU KRTAP5-7 /// NADSYN1 (11734609_at) / Fold change /veh KRTAP5-7 /// NADSYN1 (11734609_at) / RFU RASL12 (11751679_a_at) / Fold change /veh RASL12 (11751679_a_at) / RFU CDKN2B (11736163_a_at) / Fold change /veh CDKN2B (11736163_a_at) / RFU PRF1 (11729649_at) / Fold change /veh PRF1 (11729649_at) / RFU, ZNF638 /// ZNF638-IT1 / Fold change vs veh, ZNF638 /// ZNF638-IT1 / RFU, PANK3 / Fold change vs veh, PANK3 / RFU, SH3YL1 / Fold change vs veh, SH3YL1 / RFU, ZEB2 / Fold change vs veh, ZEB2 / RFU, NRIP1 / Fold change vs veh, NRIP1 / RFU, PTTG1IP / Fold change vs veh, PTTG1IP / RFU, CAPN2 / Fold change vs veh, CAPN2 / RFU, MED14 / Fold change vs veh, MED14 / RFU, SNORA58 / Fold change vs veh, SNORA58 / RFU, C1orf63 / Fold change vs veh, C1orf63 / RFU, LRRFIP1 / Fold change vs veh, LRRFIP1 / RFU, NDUFAF7 / Fold change vs veh, NDUFAF7 / RFU, SLC12A2 / Fold change vs veh, SLC12A2 / RFU, IBTK / Fold change vs veh, IBTK / RFU, ESF1 / Fold change vs veh, ESF1 / Fold change vs veh, TMEM50B / RFU, TAOK1 / Fold change vs veh, TAOK1 / RFU, ACBD3 / Fold change vs veh, ACBD3 / RFU, TMA16 / Fold change vs veh, TMA16 / RFU, RWDD3 / Fold change vs veh, RWDD3 / RFU, BCAT1 / Fold change vs veh, BCAT1 / RFU, EDEM3 / Fold change vs veh, EDEM3 / RFU, TMEM33 / Fold change vs veh, TMEM33 / RFU, WDR75 / Fold change vs veh, WDR75 / RFU, AHCTF1 / Fold change vs veh, AHCTF1 / RFU, TFRC / Fold change vs veh, TFRC / RFU, ZDHHC17 / Fold change vs veh, ZDHHC17 / RFU, NOM1 / Fold change vs veh, NOM1 / RFU, ARL8B / Fold change vs veh, ARL8B / RFU, ZBTB11 / Fold change vs veh, ZBTB11 / RFU, TAMM41 / Fold change vs veh, TAMM41 / RFU, KIAA1704 /// LOC100996395 / Fold change vs veh, KIAA1704 /// LOC100996395 / RFU, ING1 / Fold change vs veh, ING1 / RFU, TRMT61B / Fold change vs veh, TRMT61B / RFU, FUBP3 / Fold change vs veh, FUBP3 / RFU, TP53 / Fold change vs veh, TP53 / RFU, TNKS2 / Fold change vs veh, TNKS2 / RFU, ZFP14 / Fold change vs veh, ZFP14 / RFU, ACTR2 / Fold change vs veh, ACTR2 / RFU, PPP3R1 / Fold change vs veh, PPP3R1 / RFU, PIK3R1 / Fold change vs veh, PIK3R1 / RFU, HNRNPA1 / Fold change vs veh, HNRNPA1 / RFU, RNF170 / Fold change vs veh, RNF170 / RFU, ZNF28 / Fold change vs veh, ZNF28 / RFU, RNGTT / Fold change vs veh, RNGTT / RFU, OGT / Fold change vs veh, OGT / RFU, BRD1 / Fold change vs veh, BRD1 / RFU, MARS / Fold change vs veh, MARS / RFU, ZNF655 / Fold change vs veh, ZNF655 / RFU, FAHD1 / Fold change vs veh, FAHD1 / RFU, BDP1 / Fold change vs veh, BDP1 / RFU, LRRCC1 / Fold change vs veh, LRRCC1 / RFU, ARID1A / Fold change vs veh, ARID1A / RFU, ZNF146 / Fold change vs veh, ZNF146 / RFU, ZNF330 / Fold change vs veh, ZNF330 / RFU, GPN3 / Fold change vs veh, GPN3 / RFU, C9orf123 / Fold change vs veh, C9orf123 / RFU, N4BP2L2 / Fold change vs veh, N4BP2L2 / RFU, ARFIP1 / Fold change vs veh, ARFIP1 / RFU, FAM179B / Fold change vs veh, FAM179B / RFU, BCL10 / Fold change vs veh, BCL10 / RFU, UHRF1BP1L / Fold change vs veh, UHRF1BP1L / RFU, BET1 / Fold change vs veh, BET1 / RFU, CNOT2 / Fold change vs veh, CNOT2 / RFU, ZNF268 / Fold change vs veh, ZNF268 / Fold change vs veh, ZNF507 / RFU, DGCR2 / Fold change vs veh, DGCR2 / RFU, WDSUB1 / Fold change vs veh, WDSUB1 / Fold change vs veh, HSP90B1 /// MIR3652 / RFU, ADSS / Fold change vs veh, ADSS / RFU, GK / Fold change vs veh, GK / RFU, ZNF148 / Fold change vs veh, ZNF148 / RFU, TAF9 / Fold change vs veh, TAF9 / RFU, SLC1A5 / Fold change vs veh, SLC1A5 / RFU, SLMO2 / Fold change vs veh, SLMO2 / RFU, ABCC4 / Fold change vs veh, ABCC4 / RFU, LOC101060439 /// RAP1B / Fold change vs veh, LOC101060439 /// RAP1B / RFU, RFX7 / Fold change vs veh, RFX7 / RFU, GTPBP10 / Fold change vs veh, GTPBP10 / RFU, CNEP1R1 / Fold change vs veh, CNEP1R1 / RFU, BIVM-ERCC5 /// ERCC5 / Fold change vs veh, BIVM-ERCC5 /// ERCC5 / RFU, ILF3 / Fold change vs veh, ILF3 / RFU 11762660_at / Fold change /veh 11762660_at / RFU VCAN (11757783_s_at) / Fold change /veh VCAN (11757783_s_at) / RFU DDX43 (11728927_at) / Fold change /veh DDX43 (11728927_at) / RFU KRT8 (11758188_x_at) / Fold change /veh KRT8 (11758188_x_at) / RFU NKD1 (11759106_at) / Fold change /veh NKD1 (11759106_at) / RFU SRD5A1 (11742802_a_at) / Fold change /veh SRD5A1 (11742802_a_at) / RFU TPSAB1 /// TPSB2 (11721975_s_at) / Fold change /veh TPSAB1 /// TPSB2 (11721975_s_at) / RFU GSTM3 (11746129_a_at) / Fold change /veh GSTM3 (11746129_a_at) / RFU IL23R (11737362_x_at) / Fold change /veh IL23R (11737362_x_at) / RFU TMEM51 (11727254_a_at) / Fold change /veh TMEM51 (11727254_a_at) / RFU PIWIL2 (11732686_x_at) / Fold change /veh PIWIL2 (11732686_x_at) / RFU ORM1 (11744905_x_at) / Fold change /veh ORM1 (11744905_x_at) / RFU CCDC152 (11743942_at) / Fold change /veh CCDC152 (11743942_at) / RFU ECM1 (11717891_a_at) / Fold change /veh ECM1 (11717891_a_at) / RFU IL23R (11748794_a_at) / Fold change /veh IL23R (11748794_a_at) / RFU TNFAIP8L3 (11732012_x_at) / Fold change /veh TNFAIP8L3 (11732012_x_at) / RFU MBOAT4 (11741988_at) / Fold change /veh MBOAT4 (11741988_at) / RFU 11764193_at / Fold change /veh 11764193_at / RFU TMEM53 (11763286_at) / Fold change /veh TMEM53 (11763286_at) / RFU MAGEB2 (11727129_at) / Fold change /veh MAGEB2 (11727129_at) / RFU TMEM200A (11744735_a_at) / Fold change /veh TMEM200A (11744735_a_at) / RFU CCDC152 (11751479_a_at) / Fold change /veh CCDC152 (11751479_a_at) / RFU FAM211A (11726209_a_at) / Fold change /veh FAM211A (11726209_a_at) / RFU RGS16 (11746705_a_at) / Fold change /veh RGS16 (11746705_a_at) / RFU VCAN (11755009_s_at) / Fold change /veh VCAN (11755009_s_at) / RFU RHOB (11743442_s_at) / Fold change /veh RHOB (11743442_s_at) / RFU RGS16 (11720943_a_at) / Fold change /veh RGS16 (11720943_a_at) / RFU RGS16 (11720944_at) / Fold change /veh RGS16 (11720944_at) / RFU, VPS4B / Fold change vs veh, VPS4B / RFU, CREB1 / Fold change vs veh, CREB1 / RFU, DNAJC13 / Fold change vs veh, DNAJC13 / RFU, GNAQ / Fold change vs veh, GNAQ / RFU, CDK5R1 / Fold change vs veh, CDK5R1 / RFU, ZRANB3 / Fold change vs veh, ZRANB3 / RFU, CUL4A / Fold change vs veh, CUL4A / RFU, CCNY / Fold change vs veh, CCNY / RFU, UFL1 / Fold change vs veh, UFL1 / RFU, COG3 / Fold change vs veh, COG3 / RFU, DIAPH2 / Fold change vs veh, DIAPH2 / RFU, SKA2 / Fold change vs veh, SKA2 / RFU, AFF3 / Fold change vs veh, AFF3 / RFU, LMF1 / Fold change vs veh, LMF1 / RFU, IPO11 / Fold change vs veh, IPO11 / RFU, DFFB / Fold change vs veh, DFFB / RFU, FOXP1 / Fold change vs veh, FOXP1 / RFU, CARD8 / Fold change vs veh, CARD8 / RFU, STRN3 / Fold change vs veh, STRN3 / RFU, ADK / Fold change vs veh, ADK / RFU, RASSF2 / Fold change vs veh, RASSF2 / RFU, WIPF1 / Fold change vs veh, WIPF1 / RFU, LARP1B / Fold change vs veh, LARP1B / RFU, RASA1 / Fold change vs veh, RASA1 / RFU, RB1 / Fold change vs veh, RB1 / RFU, PPFIA1 / Fold change vs veh, PPFIA1 / RFU, MAT2A / Fold change vs veh, MAT2A / RFU, CCT5 / Fold change vs veh, CCT5 / RFU, WDR92 / Fold change vs veh, WDR92 / RFU, CUX1 / Fold change vs veh, CUX1 / RFU, TTC7A / Fold change vs veh, TTC7A / RFU, TMEM135 / Fold change vs veh, TMEM135 / RFU, DEPTOR / Fold change vs veh, DEPTOR / RFU, CPM / Fold change vs veh, CPM / RFU, DNAJB6 / Fold change vs veh, DNAJB6 / RFU, CACNA2D3 / Fold change vs veh, CACNA2D3 / RFU, DTX4 / Fold change vs veh, DTX4 / RFU, TFCP2 / Fold change vs veh, TFCP2 / RFU, GMCL1 /// GMCL1P1 / Fold change vs veh, GMCL1 /// GMCL1P1 / RFU, AEBP2 / Fold change vs veh, AEBP2 / RFU, SNHG1 /// SNORD22 /// SNORD25 /// SNORD26 /// SNORD27 /// SNORD28 /// SNORD29 /// SNORD31 / Fold change vs veh, SNHG1 /// SNORD22 /// SNORD25 /// SNORD26 /// SNORD27 /// SNORD28 /// SNORD29 /// SNORD31 / Fold change (Aza/veh), C12orf56 (ProbeSet 11735607_a_at) / Fold change (ACY-1035/veh), C12orf56 (ProbeSet 11735607_a_at) / Fold change (Aza/veh), FGFR1OP (ProbeSet 11751329_s_at) / Fold change (ACY-1035/veh), FGFR1OP (ProbeSet 11751329_s_at) / Fold change (Aza/veh), VPS36 (ProbeSet 11739960_a_at) / Fold change (ACY-1035/veh), VPS36 (ProbeSet 11739960_a_at) / RFU SYPL1 (11715823_x_at) / Fold change /veh SYPL1 (11715823_x_at) / RFU IGFBP7 (11715501_s_at) / Fold change /veh IGFBP7 (11715501_s_at) / RFU REEP3 (11722064_at) / Fold change /veh REEP3 (11722064_at) / RFU IGLL1 (11728026_x_at) / Fold change /veh IGLL1 (11728026_x_at): dose or concentration left out as unconfirmed", "settings": "ProbeSet 11743567_s_at; LIST B", "data": [{"smiles": "Nc1ccc(-c2cccs2)cc1NC(=O)c1ccc2c(c1)cc(C1CC1)n2CCN1CCOCC1", "note": "[ACY-1035]", "values": [{"measurement": "RFU, ACBD3", "value": 241.56, "unit": "RFU"}]}]}
